Measured values reported in PubChem BioAssay (NCI).
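Briefly, cells in 96-well plates were exposed to five compound concentrations for 48 h, and endpoints were estimated by linear interpolation. At the TGI there is no net growth.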

How the values were obtained:
Test in all cases: NCI anticancer screen, dose series, 48 h
ACHN renal = system: ACHN renal
DU-145 prostate = system: DU-145 prostate
HOP-92 NSCLC = system: HOP-92 NSCLC
M14 melanoma = system: M14 melanoma
MDA-N = system: MDA-N
NCI-H23 lung = system: NCI-H23 lung
NCI-H460 lung = system: NCI-H460 lung
SK-MEL-2 melanoma = system: SK-MEL-2 melanoma
SN12C renal = system: SN12C renal
SNB-19 CNS = system: SNB-19 CNS
U251 CNS = system: U251 CNS
UACC-62 melanoma = system: UACC-62 melanoma
OVCAR-4 ovarian = system: OVCAR-4 ovarian

| Compound | TGI (ACHN renal) [µM] | TGI (DU-145 prostate) [µM] | TGI (HOP-92 NSCLC) [µM] | TGI (M14 melanoma) [µM] | TGI (MDA-N) [µM] | TGI (NCI-H23 lung) [µM] | TGI (NCI-H460 lung) [µM] | TGI (SK-MEL-2 melanoma) [µM] | TGI (SN12C renal) [µM] | TGI (SNB-19 CNS) [µM] | TGI (U251 CNS) [µM] | TGI (UACC-62 melanoma) [µM] | TGI (OVCAR-4 ovarian) [µM] |
| --- | --- | --- | --- | --- | --- | --- | --- | --- | --- | --- | --- | --- | --- |
| O=C1CC(Br)c2c(Cl)sc(Cl)c21 (centres undefined) | 24.6 | 31.3 | 29.6 | 26.5 | 12.2 | 39.1 | 34.8 | 32.3 | 30.6 | 37.8 | 10.4 | 25.1 | – |
| Cc1cccc2sc(NC(=O)c3cc([N+](=O)[O-])ccc3Cl)nc12 | > 100 | 17.4 | > 31.2 | 5.32 | 3.69 | 19.9 | > 100 | > 100 | 3.34 | > 100 | 11.4 | > 100 | > 100 |
| CCC(=O)OCc1ccc2oc(=O)c(C(=O)Oc3cncc(Cl)c3)cc2c1 | > 100 | > 100 | > 100 | > 100 | > 100 | > 100 | > 100 | > 100 | > 100 | > 100 | > 100 | > 100 | > 100 |
| COC(=O)C(NC(=O)CNC(=O)CSc1nnc(COc2ccc(Cl)cc2)n1-c1ccccc1)C(C)C (centres undefined) | 31.8 | 35.2 | 51.5 | 38.5 | 51.2 | 42.8 | 36.2 | 40.5 | 35.9 | 50.1 | 35.5 | 31.8 | 57.1 |
| CC(C)CCCC(C)[C@H]1CC[C@H]2[C@@H]3CC[C@H]4C[C@@H](CCC=C(c5cc(Cl)c(O)c(C(=O)OC(C)(C)C)c5)c5cc(Cl)c(O)c(C(=O)OC(C)(C)C)c5)CC[C@]4(C)[C@H]3CC[C@]12C (some centres undefined) | – | > 50 | – | > 50 | > 50 | > 50 | – | > 50 | > 50 | > 50 | > 50 | > 50 | > 50 |
| CC1=C(C2=C(C)C(=O)C(=O)c3cc(C)ccc32)c2ccc(C)cc2C(=O)C1=O | 0.354 | 2.84 | 0.398 | 0.349 | 0.347 | 0.442 | 0.531 | 0.877 | 0.314 | 0.31 | 0.685 | 0.381 | – |
| O=C(O)Cc1ccc(N2N=C(c3ccccc3)CC2=O)cc1 | > 100 | > 100 | – | > 100 | > 100 | > 100 | > 100 | > 100 | > 100 | > 100 | > 100 | > 100 | > 100 |
| Cc1ccc(/C=C2\NC(=S)N(CN3CCOCC3)C2=O)cc1 | > 100 | > 100 | > 100 | > 100 | > 100 | > 100 | – | > 100 | > 100 | > 100 | > 100 | > 100 | > 100 |
| N#CC1C(=O)Nc2sc(C(=O)c3ccc(Br)cc3)c(N)c2C12CCCCC2 (centres undefined) | > 100 | > 100 | – | 39 | 55.4 | > 100 | > 100 | 37.7 | > 100 | > 100 | > 100 | 54.1 | > 100 |
| OCCSCCCSCCO | – | > 100 | 98.8 | > 100 | > 100 | > 100 | > 100 | – | > 100 | > 100 | > 100 | > 100 | > 100 |
| COC1=CC(=O)C(O)=C(C[C@@]2(C)[C@@H]3CCC[C@H](COC(=O)CCCCCNC(=O)OC(C)(C)C)[C@@]3(C)CC[C@@H]2C)C1=O | > 10 | > 10 | > 10 | > 10 | > 10 | – | – | > 10 | > 10 | > 10 | > 10 | – | > 10 |
| CCCCCCOc1ccc(NC2=C(Cl)C(=O)c3cccnc3C2=O)cc1 | 4.38 | 2.9 | 3.53 | 2.87 | 3.18 | 3.7 | 3.8 | 4.43 | 4.08 | > 10 | 7.29 | 3.28 | – |
| Oc1ccc(-c2nc3cc(C(F)(F)F)ccc3n2CC2CCCN3CCCCC23)cc1 (centres undefined) | 28.3 | 36.1 | 28.5 | 32.3 | 29.7 | 30.4 | 28.3 | 27.9 | – | – | 28 | – | 31.2 |
| O=C(O)c1c(CC(Cc2ccc3c(c2)CCCC3)C(=O)O)ccc2c1CCCC2 (centres undefined) | > 100 | > 100 | > 100 | > 100 | > 100 | > 100 | > 100 | > 100 | > 100 | > 100 | > 100 | > 100 | – |
